Entries after “also recorded” stand apart in the source; their conditions may differ.
Key:
Assay type in all cases: physicochemical
[1] = Competitive slurry 1 in nitromethane, solids characterized by XRPD; settings: equal quantity (5 mg) of Form I, II, III, IV and VIII in nitromethane, room temperature, 7 days
From the text: (§1) The slurry method described in the present invention refers to stirring of a supersaturated solution of the sample (with undissolved solids) in various solvent systems for crystallization. Usually, the duration is 14 days.

[2] = Hygroscopicity by dynamic vapor sorption (DVS) isothermal sorption; settings: for Weight change within 20%-80% RH range: DVS isothermal sorption, relative humidity 20%-80%; for Hygroscopicity in words (compared to Form I): from DVS weight change within 20-80% RH
Method: Dynamic vapor sorption (DVS) data were collected using TA Instruments Q500 TGA. The instrument control software was Thermal Advantage, and the analytical software was Universal Analysis. Usually, 1-10 mg of the sample was placed in a platinum pan, and the weight change of the sample during studies was recorded. The relative humidity was usually programed to change from 50% to 80% to 0% and then back to 50%, and an isothermal sorption plot could be generated. Depending on specific situations, different sorption and desorption procedures might be used. Hygroscopicity comparison: DVS isothermal sorption curves were used, and weight changes within the 20%-80% RH range were measured.

[3] = Competitive slurry of Form IX and Form I in mixed solvents of ethanol and water, solids characterized by XRPD; settings: equal quantity (4 mg) of Form IX and Form I in 1 mL ethanol and water (1:1, 1:4, 1:5 and 1:10), room temperature, 7 days
[4] = Competitive slurry 2 in mixed solvent of isopropanol and water, solids characterized by XRPD; settings: equal quantity (5 mg) of Form VI and Form IX in 1 mL isopropanol and water (1:4, v/v), room temperature, 7 days
From the text: as §1

| Compound | Competitive slurry 1: crystal form after slurry [1] | Weight change within 20%-80% RH range [2] | Hygroscopicity in words (compared to Form I) [2] | Competitive slurry: crystal form after slurry [3] | Competitive slurry 2: crystal form after slurry [4] | Hygroscopicity in words (compared to Form I) ([2]; listed as Form. IX) |
| --- | --- | --- | --- | --- | --- | --- |
| CC[C@H](Nc1ncnc2[nH]cnc12)c1nc2cccc(F)c2c(=O)n1-c1ccccc1 [Form III, 5-fluoro-3-phenyl-2-[(S)-1-(9H-purin-6-ylamino)-propyl]-3H-quinazoline-4-one] | thermodynamically the most stable form; also recorded: III remained unchanged | 0.44% | less hygroscopic |  |  |  |
| CC[C@H](Nc1ncnc2[nH]cnc12)c1nc2cccc(F)c2c(=O)n1-c1ccccc1 [Form IV, 5-fluoro-3-phenyl-2-[(S)-1-(9H-purin-6-ylamino)-propyl]-3H-quinazoline-4-one] | transformed into Form III | 0.27% | less hygroscopic; also recorded: least hygroscopicity; also recorded: low hygroscopicity |  |  |  |
| CC[C@H](Nc1ncnc2[nH]cnc12)c1nc2cccc(F)c2c(=O)n1-c1ccccc1 [Form I, 5-fluoro-3-phenyl-2-[(S)-1-(9H-purin-6-ylamino)-propyl]-3H-quinazoline-4-one, reference compound] | transformed into Form III | 0.95% |  | transformed into Form IX |  |  |
| CC[C@H](Nc1ncnc2[nH]cnc12)c1nc2cccc(F)c2c(=O)n1-c1ccccc1 [Form II, 5-fluoro-3-phenyl-2-[(S)-1-(9H-purin-6-ylamino)-propyl]-3H-quinazoline-4-one] | transformed into Form III | 0.46% | less hygroscopic |  |  |  |
| CC[C@H](Nc1ncnc2[nH]cnc12)c1nc2cccc(F)c2c(=O)n1-c1ccccc1 [Form IX, 5-fluoro-3-phenyl-2-[(S)-1-(9H-purin-6-ylamino)-propyl]-3H-quinazoline-4-one] |  | 0.3% | less hygroscopic; also recorded: lower hygroscopicity; also recorded: least hygroscopicity | more stable; also recorded: remained unchanged; also recorded: unchanged, while Form I | transformed into Form VI; also recorded: Form VI, while Form VI | low hygroscopicity |
| CC[C@H](Nc1ncnc2[nH]cnc12)c1nc2cccc(F)c2c(=O)n1-c1ccccc1 [Form VIII, 5-fluoro-3-phenyl-2-[(S)-1-(9H-purin-6-ylamino)-propyl]-3H-quinazoline-4-one] | transformed into Form III | 0.84% | less hygroscopic; also recorded: low hygroscopicity |  |  |  |
| CC[C@H](Nc1ncnc2[nH]cnc12)c1nc2cccc(F)c2c(=O)n1-c1ccccc1 [Form VI, 5-fluoro-3-phenyl-2-[(S)-1-(9H-purin-6-ylamino)-propyl]-3H-quinazoline-4-one] |  | 0.57% | lower hygroscopicity; also recorded: less hygroscopic |  | remained unchanged |  |

Source: patent US20160145258A1, “Inhibitor Crystalline Form and Preparation Method and Use Thereof” (Hangzhou Pushai Pharmaceutical Technology Co., LTD., priority 2013, published 2016)
